Entries after “also recorded” stand apart in the source; their conditions may differ.

We go through one compound from patent publication US12240854B2, “TRAF 6 inhibitors” (Helmholtz Zentrum München - Deutsches Forschungszentrum für …, priority 2018, dated 2025).

The subject of data set [1] is Collagen-Induced Arthritis (CIA) Model in DBA1/J mice. The experiment in a line: Collagen-Induced Arthritis (CIA) model. The data set is classed as in vivo, mouse. As for the experimental part: In order to test the potential of C25-140 to ameliorate RA symptoms, a Collagen-Induced Arthritis (CIA) Model in DBA1/J mice was performed by Washington Biotechnology, Inc. (Baltimore, USA). Each group of ten mice was subjected to a single subcutaneous injection of collagen/complete Freund's Adjuvant emulsion (0.05 ml/mouse; 100 μg collagen/CFA). After 20 days (day 21), mice were booster injected with collagen (0.05 ml/mouse; 100 μg/mouse collagen in Incomplete Freund's Adjuvant). On day 28, mice were scored for their Arthritic Index (AI) and 14 days intraperitoneally dosed twice daily with 6 mg/kg, 10 mg/kg and 14 mg/kg C25-140, respectively. Mice were scored of macroscopic signs of arthritis daily. Thereby, the following scoring index was applied to each individual paw: 0=no visible effects of arthritis; 1=edema and/or erythema of 1 digit; 2=edema and/or erythema of 2 digits; 3=edema and/or erythema of more than 2 digits; 4=severe arthritis of entire paw and digits. Single paw scores were added and recorded. On day 42, animals were euthanized, limbs were collected and histopathology was performed using Toluidine blue staining with scoring of several parameters.

The target in data set [2] is T1, ITCH (Homo sapiens, UniProt Q96J02).
T1 construct: purchased Boston Biochem
The experiment in a line: In vitro ubiquitination assay, ITCH ubiquitin ligase kit. The data set is classed as biochemical. As for the experimental part:
(§1) For analysis of cIAP1, MDM2, TRIM63, RNF4, ITCH and E6AP mediated poly-ubiquitination, the respective ubiquitin ligase kit from Boston Biochem (K-102, K-260, K-200B, K-220, K-240 and K-270) was used. Here, reaction buffer, E1, E2 and E3 enzyme (and p53 substrate in case of MDM2) were mixed and pre-incubated with compound or DMSO for 5 minutes at room temperature before adding Mg^2+-ATP and mono-ubiquitin for reaction start. Ubiquitination was visualized by Western Blot analyses.

In data set [3] the test system is TRAF6 auto-ubiquitination in MEF cells. The experiment in a line: Immunoprecipitation of TRAF6 for endogenous ubiquitination, MEF cells. The data set is classed as cell-based, mouse. As for the experimental part:
2.5×10^6 MEF cells were seeded, treated with compound for 6 hours and stimulated with IL-1β (3.5 ng/mL) for 10 minutes. Cells were lysed in Co-IP lysis buffer containing 1% SDS to eliminate all cellular interactions. After cell lysis and removal of input samples, the samples were diluted to 0.1% SDS and incubated with 5 μL TRAF6 antibody EP591Y (Abcam) and immunoprecipitated with Protein-G-Sepharose beads. After washing of the beads in Co-IP wash buffer, TRAF6 protein was eluted and levels of TRAF6 ubiquitination were detected by Western Blot analysis.

Data set [4] deals with NF-κB target genes ICAM-1 and A20 in MEF cells. Put plainly: mRNA expression (qRT-PCR) in MEF cells. The data set is classed as cell-based, mouse. How it is done:
For MEF cells, 1.2×10^5 cells per sample were seeded, treated with compound for 6 hours and stimulated with either IL-1β or TNFα for 60 minutes. Jurkat T-cells and primary mouse CD4^+ T-cells were seeded at 2×10^5 cells per sample, also treated with compound for 6 hours and stimulated with PMA/lonomycin for 3 hours. RNA was isolated according to the manufacturer's protocol of the Qiagen RNeasy Kit (MEF cells) or the STRATEC INVITRAP® SPIN UNIVERSAL RNA MINI KIT (Jurkat T-cells). The isolation of mRNA from […] white adipose tissue from DIO mice was performed using TRIzol® Reagent according to manufacturer's instruction. To clear the isolated RNA from genomic DNA, samples (up to 5 μg RNA) were treated with RQ1 RNase-Free DNaseI (Promega) as described in the technical manual. For the reverse transcription of RNA into cDNA, the DNaseI digested RNA samples were processed using the SuperScript III First Strand cDNA Synthesis System (Invitrogen/ThermoFisher Scientific) following the manufacturer's protocol. […] For quantification of cDNA in the samples, the LightCylcer480 (Roche) and the KAPA SYBR FAST qPCR Kit were used. For relative quantification, the ΔΔCp method first described by Pfaffl (Pfaffl, M. W., A new mathematical model for relative quantification in real-time RT-PCR. Nucleic Acids Res, 2001. 29(9): p. e45) was applied.

Data set [5] deals with HBL1 (ABC-DLBCL-MYD88 L265P). Put plainly: Cell viability in DLBCL, HBL1. The data set is classed as cell-based. Conditions: HBL1, 30 μM, added at day 0, 4 and 8, 9 days. How it is done:
To determine the effects of C25-140 on MYD88-dependent ABC-DLBCL, we chose the HBL1 (ABC-DLBCL-MYD88 L265P), U2932 (ABC DLBCL-MYD88 wt) and BJAB (GCB DLBCL) cell lines. 1×10^6 cells of each cell line was seeded in 5 ml and treated with 30 μM compound C25-140 (compound 3) or DMSO. The entire experiment was carried out for 9 days. Every day 500 μl were taken and viable cell number was acquired using the ViCEII cell counter (Beckmann Coulter). At days 4 and 8 of the experiment the volume was again adjusted to 5 ml and samples were supplemented with 30 μM compound C25-140 or DMSO. This process was necessary to ensure linear proliferation of DMSO treated cells. All curves of C25-140 treated samples were referred to the corresponding DMSO treated controls.

The subject of data set [6] is 80 cancer cell lines. Put plainly: Omniscreen cancer cell line panel, CellTiter-Glo. The data set is classed as cell-based. To be noted: 9 dose levels from 80 μM, 72 hours. As for the experimental part: The effect of C25-140 on cell viability of 80 cancer cell lines using the CellTiter-Glo luminescent cell viability assay was conducted at CrownBioscience Inc. at the testing facility in Beijing. Here, 80 selected cell lines were cultured in media supplemented with 10-15% FBS, in the temperature of 37° C., 5% CO2 and 95% humidity. Culture medium was purchased from GIBCO or Sigma, USA. The cells were treated with C25-140 in 9 dose levels starting at 80 μM with 3.16-fold serial dilutions. Cisplatin served as a reference control and started with a top working concentration of 100 μM. Test samples were incubated for 72 hours and cell viability was measured by the CellTiter-Glo assay.
(In general: Cellular ATP, detected with luciferase, serves as a proxy for viable cell number.)

In data set [7] the test system is CYP450. The experiment in a line: ADME: CYP450 inhibition. The data set is classed as in vitro ADME. As for the experimental part:
All ADME (plasma stability, plasma protein binding, microsomal stability, Log D, Caco-2 assay, CYP450 inhibition and hERG predictor assay) as well as pharmacokinetic studies (Tmax, Cmax, AUC0-240min, Mean Residence Time, Elimination half life, Elimination rate constant, Volume of Distribution and Clearance) of C25-140 (compound 3) were conducted by Bienta Enamine Biology Services of Bienta/Enamine Ltd.

Data set [8] deals with T2, MURF/TRIM63 (Homo sapiens, UniProt Q969Q1).
T2 construct: purchased Boston Biochem
The experiment in a line: In vitro ubiquitination assay, TRIM63 ubiquitin ligase kit. The data set is classed as biochemical. To be noted: K48 chain formation. As for the experimental part:
as §1

T2 sequence (Q969Q1 whole entry): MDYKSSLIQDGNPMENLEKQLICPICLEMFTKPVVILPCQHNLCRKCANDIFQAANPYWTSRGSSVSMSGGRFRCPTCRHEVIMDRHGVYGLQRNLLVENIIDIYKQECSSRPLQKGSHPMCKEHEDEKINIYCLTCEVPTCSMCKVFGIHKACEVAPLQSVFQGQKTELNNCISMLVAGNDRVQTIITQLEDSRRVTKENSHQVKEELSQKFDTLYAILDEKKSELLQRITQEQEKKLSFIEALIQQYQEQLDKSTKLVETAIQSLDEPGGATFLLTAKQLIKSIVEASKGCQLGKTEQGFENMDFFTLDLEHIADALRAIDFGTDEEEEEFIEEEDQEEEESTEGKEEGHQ
T1 sequence (Q96J02 whole entry): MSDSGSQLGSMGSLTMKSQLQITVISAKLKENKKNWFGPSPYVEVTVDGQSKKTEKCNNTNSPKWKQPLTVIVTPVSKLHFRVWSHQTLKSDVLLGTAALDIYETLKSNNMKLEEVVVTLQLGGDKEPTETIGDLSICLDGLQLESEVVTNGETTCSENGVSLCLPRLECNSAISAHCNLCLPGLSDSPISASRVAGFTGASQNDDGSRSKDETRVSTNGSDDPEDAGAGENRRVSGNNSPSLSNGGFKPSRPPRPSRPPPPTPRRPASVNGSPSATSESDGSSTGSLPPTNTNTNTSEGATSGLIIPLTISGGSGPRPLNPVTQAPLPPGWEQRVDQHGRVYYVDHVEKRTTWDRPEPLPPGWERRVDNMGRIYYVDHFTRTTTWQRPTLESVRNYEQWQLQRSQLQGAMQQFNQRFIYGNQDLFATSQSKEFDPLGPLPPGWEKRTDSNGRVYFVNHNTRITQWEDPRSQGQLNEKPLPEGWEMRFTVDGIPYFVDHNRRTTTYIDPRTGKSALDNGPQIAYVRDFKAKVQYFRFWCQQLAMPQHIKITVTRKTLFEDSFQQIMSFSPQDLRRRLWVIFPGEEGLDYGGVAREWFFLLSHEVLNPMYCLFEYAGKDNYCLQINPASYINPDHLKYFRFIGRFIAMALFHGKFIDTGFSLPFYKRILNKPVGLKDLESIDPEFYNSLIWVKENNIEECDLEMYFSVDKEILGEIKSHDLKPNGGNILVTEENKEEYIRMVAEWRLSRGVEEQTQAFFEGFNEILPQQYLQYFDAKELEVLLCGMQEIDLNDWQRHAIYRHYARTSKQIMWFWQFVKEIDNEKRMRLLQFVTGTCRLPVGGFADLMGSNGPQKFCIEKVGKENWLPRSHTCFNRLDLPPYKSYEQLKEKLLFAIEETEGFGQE

On to `Cc1nn(-c2ccc3nnc(C)n3n2)c(C)c1CCC(=O)N1CCC(Cc2ccccc2)CC1` [Example C25-140, 1-(4-Benzylpiperidin-1-yl)-3-(3,5-dimethyl-1-(3-methyl-[1,2,4]-triazolo-[4,3-b]-pyridazin-6-yl)-1H-pyrazol-4-yl)-propan-1-one], for which the “arthritic index (AI)” value is recorded as “dose-dependently reduced” in data set [1] (6, 10 and 14 mg/kg IP twice daily, 14 days); “almost completely ameliorated the arthritic index to baseline levels” in data set [1] (doses of 10 mg/kg and 14 mg/kg IP twice daily). Besides, in data set [1] (CIA mouse model), the “RA symptoms / disease outcome (in words)” value was “ameliorates RA disease outcomes; also recorded: successfully counteracted clinical symptoms of RA and reversed the disease state; also recorded: eases symptoms”. Moreover, the “histological score of the limbs (inflammation, pannus formation, cartilage damage, bone resorption)” value in data set [1] (day 42) is reported as “dose-dependently improves RA symptoms; also recorded: attenuated”. For the same compound, the body weight result in data set [1] (throughout the study) is listed as “did not show any signs of reduction; also recorded: do not show any signs of weight loss”. For the same compound, in data set [2], the ITCH auto-ubiquitination entry is on record as “not influenced; also recorded: not affected”. Also, in data set [3], the “IL-1β-induced auto-ubiquitination of TRAF6” value is “reduced TRAF6 auto-ubiquitination”. The “mRNA expression of target genes (ICAM-1 and A20)” value was “diminished target gene expression; also recorded: impaired” in data set [4] (IL-1β stimulation) and “also affects” in data set [4] (TNFα stimulation). The “viability of MYD88-dependent ABC-DLBCL” value in data set [5] is recorded as “selectively kills ABC-DLBCL with chronic MYD88 signaling; also recorded: significantly reduced viability; also recorded: diminished”. The “viability of control cell lines HS-5 and MCF 10A” value in data set [6] is given as “not affected at all”. Besides, in data set [6] (78 cancer cell lines), the “viability of cancer cell lines” value is “major effect is on cancer cells of blood origin; also recorded: Various cancer cell lines died; also recorded: Major effects were visible in cancer cells of blood origin”. In data set [7], the CYP450 inhibition result is listed as “some inhibitory potential on selected CYPs”. In addition, the “S5A ubiquitination by MURF/TRIM63” value in data set [8] is listed as “not influenced; also recorded: not affected”.
